Laboratory results as given in article PMC6350196 (Drug Metabolism Letters, 2018).

Test: QSRR estimation of CHIn+Fbt and CHIbt from LC retention times
Format: physicochemical
Details: predicted (QSRR, equation 13); parent-drug label = average for that drug

CHIbt, aromatic oxidation (w/o HB): -16.4 | CHIbt, aromatic oxidation with HB: -2.9
Compound: CC(C)c1c(C(=O)Nc2ccccc2)c(-c2ccccc2)c(-c2ccc(F)cc2)n1CC[C@@H](O)C[C@@H](O)CC(=O)O [atorvastatin]
